Entries after “also recorded” stand apart in the source; their conditions may differ. Like-named read-outs stand apart in the source and are kept apart here.
Legend:
[1] = Binding of engineered BMP-2 peptide to hydroxyapatite in solution; conditions: preliminary results
Text: Binding growth factors to calcium phosphate minerals. Characterization of binding of engineered bone morphogenetic protein-2 peptide (eBMP-2) to CaP mineral materials is characterized. […] (See, FIGS. 10 and 11). […] (See, FIGS. 12 and 13). […] BMP-2 will be used because it has a high intrinsic affinity for CaP minerals.

mesenchymal stem cells = test: Stem cell-based bioactivity assay (alkaline phosphatase upregulation, osteogenic differentiation)

In the case of “KIPKA SSVPT ELSAI STLYL (KIPKASSVPTELSAISTLYL) [eBMP-2, engineered bone morphogenetic protein-2 peptide; hBMP-2: 73-92 (C78, 79S, M89T)]”, the “binding to hydroxyapatite in solution” value [1] was “forms strong ionic bonds to hydroxyapatite; also recorded: binds to the hydroxyapatite mineral in solution”, the “osteogenic differentiation / alkaline phosphatase upregulation” value (mesenchymal stem cells) was “biologically active” and the “osteogenic differentiation / alkaline phosphatase upregulation” value (mesenchymal stem cells; listed as e-BMP-2) was “promotes osteogenic differentiation”.
